Experimental data taken from ChEMBL document CHEMBL1201862, “PubChem BioAssay data set” (2004).
Values belong to the molecule of their own block, whether it stands above or below them. Calls of active or inactive are those of the source.

Experiments:
[1] = molecular target: Kappa-type opioid receptor (Homo sapiens, UniProt P41145); type: functional
[2] = molecular target: Beta-galactosidase (Escherichia coli, UniProt Q8VNN2); experiment: Dose response counterscreen for EBI2 assay utilizing the enzyme, b-galactosidase.; type: functional
Sequence of Beta-galactosidase (Q8VNN2 whole entry): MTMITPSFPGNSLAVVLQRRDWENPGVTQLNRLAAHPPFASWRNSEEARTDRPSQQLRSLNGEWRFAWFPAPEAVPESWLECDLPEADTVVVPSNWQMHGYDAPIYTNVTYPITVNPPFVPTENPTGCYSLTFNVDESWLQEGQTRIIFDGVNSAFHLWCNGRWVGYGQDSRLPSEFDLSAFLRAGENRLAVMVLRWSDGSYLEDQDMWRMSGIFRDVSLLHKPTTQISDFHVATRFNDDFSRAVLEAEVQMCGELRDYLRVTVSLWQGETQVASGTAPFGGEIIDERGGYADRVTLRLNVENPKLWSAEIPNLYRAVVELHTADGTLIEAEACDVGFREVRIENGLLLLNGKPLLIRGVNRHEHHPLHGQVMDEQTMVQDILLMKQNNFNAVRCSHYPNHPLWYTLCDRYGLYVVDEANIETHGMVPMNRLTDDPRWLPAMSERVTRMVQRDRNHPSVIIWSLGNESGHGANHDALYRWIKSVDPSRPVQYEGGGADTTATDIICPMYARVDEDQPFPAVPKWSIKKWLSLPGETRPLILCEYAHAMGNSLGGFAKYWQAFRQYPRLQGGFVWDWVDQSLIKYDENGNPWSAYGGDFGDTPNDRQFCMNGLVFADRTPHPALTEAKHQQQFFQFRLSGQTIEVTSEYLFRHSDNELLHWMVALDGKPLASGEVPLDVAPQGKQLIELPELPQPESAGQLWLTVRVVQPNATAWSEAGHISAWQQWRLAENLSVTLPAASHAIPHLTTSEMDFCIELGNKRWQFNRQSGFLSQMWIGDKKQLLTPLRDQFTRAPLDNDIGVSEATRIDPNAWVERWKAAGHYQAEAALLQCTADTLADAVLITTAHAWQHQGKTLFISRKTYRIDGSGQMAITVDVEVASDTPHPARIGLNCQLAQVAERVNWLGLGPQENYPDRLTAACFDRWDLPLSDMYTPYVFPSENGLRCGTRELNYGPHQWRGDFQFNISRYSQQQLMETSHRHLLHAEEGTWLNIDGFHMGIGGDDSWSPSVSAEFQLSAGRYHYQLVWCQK

[3] = molecular target: T1, ATP-dependent translocase ABCB1 (Homo sapiens, UniProt P08183); experiment: ABCB1 efflux inhibitor potency, dose response, Jurkat-DNR cells, JC-1, flow cytometry, set 2 (AID 504569); type: functional; details: read-out: EC50_MICROM_;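 further: potency of pump inhibitors that raise cellular JC-1 green fluorescence up to the nicardipine level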
T1 sequence (P08183 whole entry): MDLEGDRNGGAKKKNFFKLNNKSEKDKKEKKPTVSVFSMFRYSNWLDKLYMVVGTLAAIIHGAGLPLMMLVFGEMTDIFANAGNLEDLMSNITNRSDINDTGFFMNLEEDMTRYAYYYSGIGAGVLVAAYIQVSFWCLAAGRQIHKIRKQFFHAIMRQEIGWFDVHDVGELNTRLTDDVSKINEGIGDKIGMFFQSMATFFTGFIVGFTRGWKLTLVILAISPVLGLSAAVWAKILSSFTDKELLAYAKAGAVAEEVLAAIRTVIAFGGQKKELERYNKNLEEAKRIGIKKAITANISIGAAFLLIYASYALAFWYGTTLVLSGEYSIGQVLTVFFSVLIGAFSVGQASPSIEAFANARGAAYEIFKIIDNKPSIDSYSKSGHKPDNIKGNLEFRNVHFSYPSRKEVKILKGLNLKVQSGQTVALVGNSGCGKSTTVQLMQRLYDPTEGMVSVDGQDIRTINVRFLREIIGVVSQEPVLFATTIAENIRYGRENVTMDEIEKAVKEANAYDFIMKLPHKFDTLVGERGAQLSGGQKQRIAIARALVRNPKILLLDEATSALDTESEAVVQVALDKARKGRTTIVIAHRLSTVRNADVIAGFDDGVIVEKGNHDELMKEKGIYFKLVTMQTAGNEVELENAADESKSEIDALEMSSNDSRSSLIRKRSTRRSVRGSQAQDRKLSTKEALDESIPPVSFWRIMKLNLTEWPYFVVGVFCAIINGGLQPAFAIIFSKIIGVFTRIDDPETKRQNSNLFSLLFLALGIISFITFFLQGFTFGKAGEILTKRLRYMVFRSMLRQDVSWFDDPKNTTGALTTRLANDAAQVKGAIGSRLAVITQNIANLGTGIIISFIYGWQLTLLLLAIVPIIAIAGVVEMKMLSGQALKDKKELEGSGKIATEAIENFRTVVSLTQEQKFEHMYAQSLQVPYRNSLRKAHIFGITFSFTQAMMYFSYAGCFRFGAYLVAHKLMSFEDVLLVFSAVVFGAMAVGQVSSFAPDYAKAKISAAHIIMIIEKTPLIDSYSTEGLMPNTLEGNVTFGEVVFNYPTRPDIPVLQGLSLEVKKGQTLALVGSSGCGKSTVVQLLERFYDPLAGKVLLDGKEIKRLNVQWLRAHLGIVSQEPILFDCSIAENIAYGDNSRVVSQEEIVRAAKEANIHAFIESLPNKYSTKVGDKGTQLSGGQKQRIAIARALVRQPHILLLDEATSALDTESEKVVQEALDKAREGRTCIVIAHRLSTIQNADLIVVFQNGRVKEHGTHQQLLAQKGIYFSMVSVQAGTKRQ

[4] = molecular target: T1, ATP-dependent translocase ABCB1; experiment: ABCG2 efflux pump inhibitor potency, dose response, Ig-MXP3 cells, JC-1, flow cytometry, set 2 (AID 504566); type: functional; details: read-out: EC50_MICROM_;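 further: flow cytometry median green fluorescence of retained JC-1 dye; potency of efflux pump inhibition measured as rising substrate retention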
[5] = system: Vero; experiment: Vero cell toxicity, dose response, cytotoxicity control, plate reader, cherry-pick samples (AID 687020); type: functional, cell-based; details: Chlorocebus sabaeus
[6] = system: A549; experiment: A549 cell toxicity, dose response, cytotoxicity control, plate reader, cherry-pick samples (AID 687028); type: functional, cell-based; details: Homo sapiens
[7] = P. falciparum Dd2 growth inhibitors, dose response, SYBR Green, dry powder samples (AID 1159566); type: functional, cell-based;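 further: potency for growth inhibition with lower SYBR green DNA signal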
[8] = P. falciparum ATP4 D1247Y mutant growth inhibitors, dose response, NITD609-resistant line, SYBR Green, dry powder (AID 1159571); type: functional, cell-based;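 further: parasites synchronized at ring stage by sorbitol before testing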
[9] = HepG2 cell cytotoxicity, dose response, cytotoxicity control, plate reader, dry powder samples (AID 1159569); type: functional, cell-based;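 further: inhibitor potency with signal falling toward the positive control level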
[10] = HEK293 Cytotoxicity Assay Measured in Cell-Based System Using Plate Reader - 7071-01_Inhibitor_Dose_CherryPick_Activity_Set2.; type: functional
[11] = system: HEK293; experiment: HEK293T cell cytotoxicity, dose response, cytotoxicity control, ATP luminescence, cherry-pick samples (AID 687005); type: functional, cell-based; details: Homo sapiens;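 further: cells exposed to compound for 48 hours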
[12] = P. falciparum 3D7-ScDHODH growth inhibitors, dose response, SYBR Green, dry powder samples (AID 1159570); type: functional, cell-based;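 further: parasite growth measured after 72 hours of compound exposure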
[13] = system: HeLa; experiment: HeLa cell cytotoxicity, dose response, cytotoxicity control, ATP luminescence, cherry-pick samples (AID 687004); type: functional, cell-based; details: Homo sapiens
[14] = cytotoxicity in HeLa cells, dose response, cytotoxicity control, cell-based, 24 h, dry powder, set 2 (AID 651774); type: functional
[15] = molecular target: Protein Wnt-3a (Mus musculus, UniProt P27467); experiment: SAR analysis of small molecule antagonists of Gli-SUFU in a Wnt3a luminescent reporter assay.; type: functional
Sequence of Protein Wnt-3a (P27467 whole entry): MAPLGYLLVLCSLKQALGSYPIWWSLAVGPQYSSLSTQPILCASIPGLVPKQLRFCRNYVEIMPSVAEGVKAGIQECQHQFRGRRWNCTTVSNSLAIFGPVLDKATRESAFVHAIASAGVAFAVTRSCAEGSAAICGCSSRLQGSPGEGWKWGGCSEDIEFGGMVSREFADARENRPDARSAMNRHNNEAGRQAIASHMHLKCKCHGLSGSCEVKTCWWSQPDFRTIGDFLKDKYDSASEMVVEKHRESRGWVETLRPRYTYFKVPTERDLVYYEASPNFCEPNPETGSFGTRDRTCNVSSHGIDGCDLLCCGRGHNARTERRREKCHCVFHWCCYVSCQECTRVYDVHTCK

[16] = MC4R antagonists, dose response, counter-screen for LGR2 antagonist project, cell-based, plate reader, cherry pick (AID 743444); type: functional;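 further: transfected HEK 293 cells stimulated with alpha-MSH peptide; potency of inhibitors of the alpha-MSH evoked signal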
[17] = LGR2 antagonists, dose response, cell-based, HEK293, CRE-luciferase reporter, cherry pick (AID 743342); type: functional
[18] = ADAM10 inhibitors, peptide cleavage, dose response, biochemical, QFRET (AID 743254);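 further: ADAM10 enzyme with the DM2 quenched FRET peptide as substrate; EDANS fluorescence gain as the protease cuts the substrate; inhibitor potency against ADAM10 proteolytic activity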
[19] = molecular target: Disintegrin and metalloproteinase domain-containing protein 17 (Homo sapiens, UniProt P78536); experiment: ADAM17 protease inhibitors, dose response, counter-screen for ADAM10 exosite inhibitor project, biochemical, quenched FRET substrate (AID 743253)
Sequence of Disintegrin and metalloproteinase domain-containing protein 17 (P78536 whole entry, the tested form may be a part): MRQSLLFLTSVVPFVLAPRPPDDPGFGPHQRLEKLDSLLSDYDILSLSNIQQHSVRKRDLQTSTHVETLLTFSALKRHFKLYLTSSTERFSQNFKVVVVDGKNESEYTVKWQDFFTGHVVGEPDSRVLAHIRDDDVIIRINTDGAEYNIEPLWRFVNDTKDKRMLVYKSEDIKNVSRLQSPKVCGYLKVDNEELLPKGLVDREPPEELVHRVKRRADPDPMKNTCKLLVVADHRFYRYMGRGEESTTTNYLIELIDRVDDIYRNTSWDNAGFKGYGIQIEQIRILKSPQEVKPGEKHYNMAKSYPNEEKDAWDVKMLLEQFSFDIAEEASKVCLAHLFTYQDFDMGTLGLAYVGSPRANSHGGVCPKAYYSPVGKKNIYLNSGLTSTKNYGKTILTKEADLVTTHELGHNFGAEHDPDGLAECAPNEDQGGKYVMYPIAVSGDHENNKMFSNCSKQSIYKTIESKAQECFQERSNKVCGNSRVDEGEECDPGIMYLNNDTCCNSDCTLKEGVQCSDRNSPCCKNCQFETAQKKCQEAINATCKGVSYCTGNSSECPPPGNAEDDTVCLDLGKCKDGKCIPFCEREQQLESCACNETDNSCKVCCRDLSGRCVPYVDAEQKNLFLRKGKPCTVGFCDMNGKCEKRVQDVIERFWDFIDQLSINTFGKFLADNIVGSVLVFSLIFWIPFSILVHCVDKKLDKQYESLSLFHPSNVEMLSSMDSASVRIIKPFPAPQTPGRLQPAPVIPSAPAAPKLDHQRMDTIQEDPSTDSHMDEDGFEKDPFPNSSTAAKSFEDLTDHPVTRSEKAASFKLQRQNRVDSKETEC

Sequence of Kappa-type opioid receptor (P41145 whole entry): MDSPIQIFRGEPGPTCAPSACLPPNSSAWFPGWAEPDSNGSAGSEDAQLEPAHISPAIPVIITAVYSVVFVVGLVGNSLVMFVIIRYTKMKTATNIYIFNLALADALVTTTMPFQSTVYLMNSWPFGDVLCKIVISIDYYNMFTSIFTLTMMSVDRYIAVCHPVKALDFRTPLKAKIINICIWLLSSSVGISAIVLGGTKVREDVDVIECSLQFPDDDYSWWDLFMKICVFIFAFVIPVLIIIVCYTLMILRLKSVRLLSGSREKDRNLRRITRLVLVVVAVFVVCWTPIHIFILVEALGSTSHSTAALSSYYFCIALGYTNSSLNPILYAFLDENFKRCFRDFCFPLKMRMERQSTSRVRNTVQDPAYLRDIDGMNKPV

IC50 [1]: < 0.98 µM (inactive) | IC50 [2]: 1.23 µM (active)
Compound: CC1(C)CC(=O)C(=CNc2ncccc2/N=C/C2=C(O)CC(C)(C)CC2=O)C(=O)C1

EC50 [3]: 4.1 µM (active) | EC50 [4]: 5.55 µM (active)
Compound: CC(=O)N1CCN(c2cc(-c3ccccc3)nc3cc(-c4cccc(Cl)c4)nn23)CC1

Compound: COC(=O)N1CCCCC1c1cc(C(=O)Nc2ccc(OC)cc2C)no1 (centres undefined)
AC50 [5]: 34.5 µM (active)

Compound: C[C@@H]1CCCCO[C@H](CN(C)Cc2ccc(Cl)c(Cl)c2)[C@H](C)CN([C@@H](C)CO)C(=O)c2cc(NC(=O)c3ccccc3)ccc2O1
AC50 [6]: 31.5 µM (active)

Compound: N#C[C@H]1[C@@H](c2ccc(C#CCC3CCCC3)cc2)[C@@H](CO)N1C(=O)c1ccccn1
AC50 [7]: 0.851 µM (active) | AC50 [8]: 1.44 µM (active) | AC50 [9]: 46.9 µM (active) | AC50 [10]: 15.7 µM (active) | AC50 [11]: 15.7 µM (active) | AC50 [12]: 1.73 µM (active) | AC50 [13]: 27.8 µM (active)

Compound: Cn1nnnc1NCc1ccc(C(F)(F)F)cc1
AC50 [14]: > 70 µM (inactive)

IC50 [15]: > 21.8 µM (inactive)
Compound: O=C(Nc1cc(N2CCCCC2)ncn1)c1ccc(C(F)(F)F)cc1

Compound: C[C@H](CO)N1C[C@H](C)[C@H](CN(C)C(=O)Nc2ccc(F)cc2)OCCCC[C@H](C)Oc2ccc(NC(=O)C3CCCCC3)cc2C1=O
AC50 [16]: 65.8 µM (active) | AC50 [17]: 1.82 µM (active)

IC50 [18]: > 69.5 µM (inactive) | IC50 [19]: > 69.5 µM (inactive)
Compound: COc1ccc(C(=O)N/N=C/c2ccc(OC)c(COc3ccccc3)c2)cc1
